Measured values taken from patent publication US7449477B2, “7-phenyl-isoquinoline-5-sulfonylamino derivatives as inhibitors of akt (protein kinase B)” (Eli Lilly and Company, priority 2003, dated 2008).
Structures can show the parent of a compound that is named as a salt.

Molecular target: T1, active human Akt1 (Homo sapiens, UniProt P31749)
T1 construct: Active human recombinant Akt1 (full-length) purified from Sf9 insect cells; purchased Upstate Biotechnology, Inc. 14-276; host or cells: Sf9 insect cells
T1 sequence (P31749 whole entry): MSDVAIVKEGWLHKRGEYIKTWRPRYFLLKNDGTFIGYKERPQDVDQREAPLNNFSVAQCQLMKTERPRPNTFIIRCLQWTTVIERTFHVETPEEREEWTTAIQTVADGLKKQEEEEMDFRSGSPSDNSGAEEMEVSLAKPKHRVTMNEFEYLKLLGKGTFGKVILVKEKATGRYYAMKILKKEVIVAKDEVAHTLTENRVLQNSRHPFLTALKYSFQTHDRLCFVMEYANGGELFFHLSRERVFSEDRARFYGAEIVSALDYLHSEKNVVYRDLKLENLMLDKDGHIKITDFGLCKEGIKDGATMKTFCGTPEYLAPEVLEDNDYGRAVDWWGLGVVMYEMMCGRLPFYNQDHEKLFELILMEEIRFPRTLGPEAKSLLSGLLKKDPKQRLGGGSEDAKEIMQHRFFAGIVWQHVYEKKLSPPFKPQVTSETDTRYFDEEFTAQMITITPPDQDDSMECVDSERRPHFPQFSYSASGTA
Experiment: Akt1 Phosphorylation Assay (phosphocellulose filter-binding, 33P-Crosstide)
Format: biochemical
Settings: active human recombinant Akt1 (full-length) 10 nM; 12.5 μM Crosstide; 20 μM ATP; 30 minutes at room temperature
Experimental: Akt1 Phosphorylation Assay
The assay described measures the phosphorylation of Crosstide by active human Akt1 and other Akt isoforms. Crosstide contains a consensus sequence derived from Akt substrates GSK3b and forkhead transcription factors (FKs). The ^33P-labeled Crosstide substrate is captured by phosphocellulose membrane filter plates.
Active human recombinant Akt1 (full-length) purified from Sf9 insect cells is from Upstate Biotechnology, Inc. (Cat. #14-276, 405 μg/ml). Crosstide substrate, NH2-GRPRTSSFAEG-COOH (M.W.1164) is purchased from Multiple Peptide System (Cat. # L59/GR145-153).
Solution (A): 20% DMSO (dimethylsulphoxide) or Compound in 20% DMSO; Solution (B): Assay Buffer Mix: 31.25 μM Crosstide, 37.5 mM MgCl2, 87.5 mM HEPES, pH 7.3, 50 μM ATP γ-^33P-ATP, 0.05 μCi/μl; Solution (C): Akt Kinase Mix: 31.25 mM HEPES, pH 7.3; 1 mM DTT, 25 nM UBI Akt1.
Procedure for Phosphocellulose Filter-Binding Assay
Ten μl of Solution (A) are first mixed with 20 μl Solution (B). The enzymatic reaction is initiated by adding 20 μl Solution (C) to the mixture. (Final concentration or amount in a 50-μl reaction mix: 4% DMSO or various compound concentration in 4% DMSO; 12.5 μM Crosstide; 15 mM MgCl2; 35 mM HEPES, pH7.3; 20 μM ATP; 1 μCi γ-^33P-ATP; 0.4 mM DTT; 10 nM UBI Akt1.) The reactions are performed in 96-well microtiter plates.
After 30 minutes at room temperature, the reaction is terminated by adding 80 μl of 10% H3PO4. An aliquot of 100 μl from each well is transferred to the phosphocellulose filter plate (Millipore MultiScreen, Catalog #MAPHN0B50). After 30 minutes, the reaction mix is filtered with a Millipore manifold following by 3 washes with 0.5% H3PO4. The filter is then vacuum-dried and the plate is fitted onto a Packard carrier. 100 μl/well Microscint20 are added and the contents are counted in a Packard Top Count.

| SMILES | IC50 |
| --- | --- |
| Nc1ccc(-c2cc(S(=O)(=O)NCCNCCCc3ccc([N+](=O)[O-])cc3)c3ccncc3c2)cc1 [Example 90, 7-(4-aminophenyl)-isoquinoline-5-sulfonic acid [2-(3-(4-nitrophenyl)-propylamino)-ethyl]-amide, trihydrochloride salt] | ≤ 2000 nM |
| O=[N+]([O-])c1ccc(CCCNCCNS(=O)(=O)c2cc(-c3ccccc3O)cc3cnccc23)cc1 [Example 91, 7-(2-hydroxy-phenyl)-isoquinoline-5-sulfonic acid {2-[3-(4-nitro-phenyl)-propylamino]-ethyl}-amide, dihydrochloride salt] | ≤ 2000 nM |
| Nc1cccc(-c2cc(S(=O)(=O)NCCNCCCc3ccc([N+](=O)[O-])cc3)c3ccncc3c2)c1 [Example 92, 7-(3-aminophenyl)-isoquinoline-5-sulfonic acid [2-(3-(4-nitrophenyl)-propylamino)-ethyl]-amide, trihydrochloride salt] | ≤ 2000 nM |
| O=[N+]([O-])c1ccc(CCCNCCNS(=O)(=O)c2cc(-c3cccc(F)c3)cc3cnccc23)cc1 [Example 93, 7-(3-fluorophenyl)-isoquinoline-5-sulfonic acid [2-(3-(4-nitrophenyl)-propylamino)-ethyl]-amide] | ≤ 2000 nM |
| CS(=O)(=O)Nc1cccc(-c2cc(S(=O)(=O)NCCNCCCc3ccc([N+](=O)[O-])cc3)c3ccncc3c2)c1 [Example 94, 7-(3-methanesulfonylamino-phenyl)-isoquinoline-5-sulfonic acid {2-[3-(4-nitro-phenyl)-propylamino]-ethyl}-amide, dihydrochloride salt] | ≤ 2000 nM |
| O=[N+]([O-])c1ccc(CCCNCCNS(=O)(=O)c2cc(-c3ccc(O)cc3)cc3cnccc23)cc1 [Example 98, 7-(4-hydroxy-phenyl)-isoquinoline-5-sulfonic acid {2-[3-(4-nitro-phenyl)-propylamino]-ethyl}-amide, dihydrochloride salt] | ≤ 2000 nM |
| O=[N+]([O-])c1ccc(CCCNCCNS(=O)(=O)c2cc(-c3cccc(O)c3)cc3cnccc23)cc1 [Example 99, 7-(3-hydroxy-phenyl)-isoquinoline-5-sulfonic acid {2-[3-(4-nitro-phenyl)-propylamino]-ethyl}-amide, dihydrochloride salt] | ≤ 2000 nM |
| CS(=O)(=O)c1ccc(CCCNCCNS(=O)(=O)c2cc(-c3ccccc3)cc3cnccc23)cc1 [Example 100, 7-Phenyl-isoquinoline-5-sulfonic acid {2-[3-(4-methanesulfonyl-phenyl)-propylamino]-ethyl}-amide, dihydrochloride salt] | ≤ 2000 nM |
| O=[N+]([O-])c1cccc(CCCNCCNS(=O)(=O)c2cc(-c3ccccc3)cc3cnccc23)c1 [Example 101, 7-Phenyl-isoquinoline-5-sulfonic acid {2-[3-(3-nitro-phenyl)-propylamino]-ethyl}-amide, dihydrochloride salt] | ≤ 2000 nM |
| O=S(=O)(NCCNCCCc1ccc(S(=O)(=O)C(F)(F)F)cc1)c1cc(-c2ccccc2)cc2cnccc12 [Example 102, 7-Phenyl-isoquinoline-5-sulfonic acid {2-[3-(4-trifluoromethanesulfonyl-phenyl)-propylamino]-ethyl}-amide, dihydrochloride salt] | ≤ 2000 nM |
| CCc1cc([N+](=O)[O-])ccc1CCCNCCNS(=O)(=O)c1cc(-c2ccccc2)cc2cnccc12 [Example 103, 7-Phenyl-isoquinoline-5-sulfonic acid {2-[3-(2-ethyl-4-nitro-phenyl)-propylamino]-ethyl}-amide, dihydrochloride salt] | ≤ 2000 nM |
| Cc1cc(C#N)ccc1CCCNCCNS(=O)(=O)c1cc(-c2ccccc2)cc2cnccc12 [Example 104, 7-Phenyl-isoquinoline-5-sulfonic acid {2-[3-(4-cyano-2-methyl-phenyl)-propylamino]-ethyl}-amide, dihydrochloride salt] | ≤ 2000 nM |
| O=[N+]([O-])c1ccc(CCCNCCNS(=O)(=O)c2cc(-c3ccccc3)cc3cnccc23)cc1O [Example 105, 7-Phenyl-isoquinoline-5-sulfonic acid {2-[3-(3-hydroxy-4-nitro-phenyl)-propylamino]-ethyl}-amide, dihydrochloride salt] | ≤ 2000 nM |
| N#Cc1ccc(CCCNCCNS(=O)(=O)c2cc(-c3ccccc3)cc3cnccc23)cc1O [Example 106, 7-Phenyl-isoquinoline-5-sulfonic acid {2-[3-(4-cyano-3-hydroxy-phenyl)-propylamino]-ethyl}-amide, bis-trifluoroacetate salt] | ≤ 2000 nM |
| O=S(=O)(NCCNCCCc1cccc(O)c1)c1cc(-c2cccc(O)c2)cc2cnccc12 [Example 107, 7-(3-Hydroxy-phenyl)-isoquinoline-5-sulfonic acid {2-[3-(3-hydroxy-phenyl)-propylamino]-ethyl}-amide] | ≤ 2000 nM |
| COc1ccc(CCCNCCNS(=O)(=O)c2cc(-c3ccc(O)cc3)cc3cnccc23)c(F)c1 [Example 108, 7-(4-Hydroxy-phenyl)-isoquinoline-5-sulfonic acid {2-[3-(2-fluoro-4-methoxy-phenyl)-propylamino]-ethyl}-amide] | ≤ 2000 nM |
| O=S(=O)(NCCNCCCc1cccc(O)c1)c1cc(-c2ccc(O)cc2)cc2cnccc12 [Example 109, 7-(4-Hydroxy-phenyl)-isoquinoline-5-sulfonic acid {2-[3-(3-hydroxy-phenyl)-propylamino]-ethyl}-amide] | ≤ 2000 nM |
| COc1ccc(CCCNCCNS(=O)(=O)c2cc(-c3cccc(O)c3)cc3cnccc23)c(F)c1 [Example 110, 7-(3-Hydroxy-phenyl)-isoquinoline-5-sulfonic acid {2-[3-(2-fluoro-4-methoxy-phenyl)-propylamino]-ethyl}-amide] | ≤ 2000 nM |
| N#Cc1ccc(CC(O)CNCCNS(=O)(=O)c2cc(-c3ccccc3)cc3cnccc23)cc1 (stereo not drawn) [Example 111, 7-Phenyl-isoquinoline-5-sulfonic acid {2-[3-(4-cyano-phenyl)-2-hydroxy-propylamino]-ethyl}-amide, dihydrochloride salt, dihydrochloride salt, dihydrochloride salt, dihydrochloride …] | ≤ 2000 nM |
| N#Cc1ccc(C(O)C(O)CNCCNS(=O)(=O)c2cc(-c3ccccc3)cc3cnccc23)cc1 (stereo not drawn) [Example 112, 7-Phenyl-isoquinoline-5-sulfonic acid {2-[3-(4-cyano-phenyl)-2,3-dihydroxy-propylamino]-ethyl}-amide, dihydrochloride salt] | ≤ 2000 nM |
| O=S(=O)(NCCNCC(O)C(O)c1ccc(S(=O)(=O)C(F)(F)F)cc1)c1cc(-c2ccccc2)cc2cnccc12 (stereo not drawn) [Example 113, 7-Phenyl-isoquinoline-5-sulfonic acid {2-[2,3-dihydroxy-3-(4-trifuoromethanesulfonyl-phenyl)-propylamino]-ethyl}-amide, dihydrochloride salt] | ≤ 2000 nM |
